Patent US9545385B2, “Inhibitors of hemeprotein-catalyzed lipid peroxidation” (VANDERBILT UNIVERSITY, priority 2013, dated 2017)
One block for each compound: values may come before it.

Key:
[1] = Antioxidant rate constant kinh in chemical tests, relative to α-TOH
Source text: Antioxidants, most commonly substituted phenols, effectively intercept peroxyls by transferring the phenolic H-atom to a propagating peroxyl radical, with a rate constant kinh that is faster than that of chain propagation. The most famous example of a phenolic antioxidant is vitamin E (α-toco-pherol, α-TOH) nature's hydrophobic defense against radical chain oxidation.
Compounds of the present invention have a higher kinh and serve as better antioxidants than α-TOH in chemical tests. The critical antioxidant step is shown in Equation 1, the larger the kinh, the better the antioxidant. The simple pyridinol 2a shown below is nearly 5 times better than α-TOH as an antioxidant and the bicyclic compounds 3a and 4a are over 20 times better than the vitamin. […]

[2] = Direct cellular toxicity (total cellular ATP levels); assay type: cell-based; conditions: human, HepG2 cells, read-out: Cellular Toxicity (EC50, μM ± SD)
Source text: Values represent means±S.E.M.

[3] = Microsomal stability; conditions: % of unmodified compound remaining after reaction; human liver microsomes
[4] = biological target: COX-1 (Homo sapiens, UniProt P23219); experiment: Inhibition of COX-1-catalyzed oxidation of arachidonic acid (Example 6); assay type: biochemical
Chain of COX-1 (P23219 24-599, species assumed): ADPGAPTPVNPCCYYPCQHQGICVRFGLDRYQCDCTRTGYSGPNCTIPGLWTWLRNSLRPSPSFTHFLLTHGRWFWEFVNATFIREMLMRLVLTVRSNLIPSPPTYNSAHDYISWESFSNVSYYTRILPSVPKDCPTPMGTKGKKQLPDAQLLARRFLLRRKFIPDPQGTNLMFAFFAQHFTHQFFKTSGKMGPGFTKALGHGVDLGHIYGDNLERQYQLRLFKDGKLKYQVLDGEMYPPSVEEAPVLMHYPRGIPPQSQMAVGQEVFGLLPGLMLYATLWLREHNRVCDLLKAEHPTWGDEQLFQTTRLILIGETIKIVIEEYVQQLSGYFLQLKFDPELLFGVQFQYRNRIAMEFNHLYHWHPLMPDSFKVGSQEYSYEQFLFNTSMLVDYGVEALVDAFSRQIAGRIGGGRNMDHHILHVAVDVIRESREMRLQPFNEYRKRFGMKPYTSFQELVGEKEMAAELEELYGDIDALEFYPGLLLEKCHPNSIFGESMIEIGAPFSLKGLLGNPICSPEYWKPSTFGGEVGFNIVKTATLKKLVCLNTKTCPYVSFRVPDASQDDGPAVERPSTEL
Experimental: (§1) The inhibition of the lipid peroxidation produced by myoglobin (Mb) and COX-1 by the different analogs was tested. Values represent the IC50 for each hemeprotein and are expressed as means±S.E.M. a: value reported from (1.). b: value reported from (3).

[5] = biological target: T1, myoglobin (Mb) (Homo sapiens, UniProt P02144); experiment: Inhibition of myoglobin-induced oxidation of arachidonic acid; assay type: biochemical; conditions: among ApAP and analogs 12-14
T1 sequence (P02144 1-154): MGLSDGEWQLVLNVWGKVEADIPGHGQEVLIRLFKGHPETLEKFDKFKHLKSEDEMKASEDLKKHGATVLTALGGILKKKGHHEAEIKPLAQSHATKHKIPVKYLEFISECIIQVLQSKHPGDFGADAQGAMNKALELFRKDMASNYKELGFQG
Experimental: as §1

[6] = test system: rat model of rhabdomyolysis; experiment: Rat model of rhabdomyolysis (myoglobin-catalyzed lipid peroxidation, renal failure); assay type: in vivo; conditions: dose giving plasma levels in the human therapeutic range
[7] = biological target: T2, ferryl myoglobin (Homo sapiens, UniProt P02144); experiment: Reduction of ferryl myoglobin to ferric myoglobin; assay type: biochemical; conditions: compared with acetaminophen
T2 sequence (P02144 1-154): T1 sequence (P02144 1-154)
Experimental: Ferryl myoglobin was generated by incubating ferric myoglobin 10 μM in PBS with 10 μM hydrogen peroxide until there was no more change in the peak at 421 nm. At this time, the analogs were added to the cuvette at the final concentrations indicated and spectra were recorded every 15 sec for 2 min. The initial rate of reduction was calculated as the variation of absorbance at 409 nm in the first two minutes after adding the analogs. In this period of time the rates of reduction were linear for each concentration of analog.

[8] = test system: HepG2 liver cell line
Experimental: HepG2 were plated in multiple 96-well plates at 2×10^4 cells per well and pretreated with ethanol 100 μM for 2 hours. […] Cell viability after 24 h was determined by measuring ATP levels by luminescence assay.

[9] = biological target: T3, PGHS-2 (COX-2) (Homo sapiens, UniProt P35354); experiment: Inhibition of hematin-reconstituted COX-2, [14C] arachidonic acid oxidation; assay type: biochemical; conditions: compared with PGHS-1
T3 sequence (P35354 18-604): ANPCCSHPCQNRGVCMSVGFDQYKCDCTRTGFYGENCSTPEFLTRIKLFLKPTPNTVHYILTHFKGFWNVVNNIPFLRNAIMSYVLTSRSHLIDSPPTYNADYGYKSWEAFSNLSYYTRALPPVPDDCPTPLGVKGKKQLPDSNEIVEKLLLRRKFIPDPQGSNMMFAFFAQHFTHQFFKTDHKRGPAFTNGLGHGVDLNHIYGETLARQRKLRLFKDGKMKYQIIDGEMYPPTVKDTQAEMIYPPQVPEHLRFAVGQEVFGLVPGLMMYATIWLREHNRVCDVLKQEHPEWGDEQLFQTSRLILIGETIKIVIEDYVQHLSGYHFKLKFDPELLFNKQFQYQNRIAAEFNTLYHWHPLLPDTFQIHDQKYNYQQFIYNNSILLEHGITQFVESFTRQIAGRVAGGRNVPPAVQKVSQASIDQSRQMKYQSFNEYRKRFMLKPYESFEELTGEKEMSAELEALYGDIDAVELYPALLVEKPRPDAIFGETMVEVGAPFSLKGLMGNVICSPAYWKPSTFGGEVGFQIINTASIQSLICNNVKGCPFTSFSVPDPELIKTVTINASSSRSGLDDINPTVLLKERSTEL
Experimental: Hematin-reconstituted COX-1 (5.4 nM) or COX-2 (10.8 nM) in Tris HCl 100 mM, pH 8.0, 500 μM phenol, was pre-incubated with N-dimethyl pyrimidinol (DM, plain line) or N-dimethyl pyridinol (DR, dashed line) at varying concentrations at 37° C. for 20 minutes. At this time the reaction was initiated by addition of 0.5 μM of [14C] arachidonic acid. After 8 seconds, the reaction was stopped by adding an ice cold mixture of diethyl ether/methanol/4.0 M citric acid. PGHS-1 activity was expressed as percent oxidation of arachidonic acid compared with control where no inhibitor was added. Each data point represents the mean±S.E.M of six values.

Compound: Cc1cc(N(C)C)nc(C)c1O [Analog 2a]
antioxidant potency, times better than α-TOH [1]: ~5 times

Compound: O=C1NCc2cc(O)cnc2N1 [Analog 12]
EC50 at 24 h [2]: 4760 ± 36 µM
Microsomal stability % left [3]: 158 ± 33%

Compound: CC(=O)Nc1ccc(O)cc1 [ApAP, acetaminophen]
lipid peroxidation in rhabdomyolysis model ([6]; listed as Acetaminophen): blocked lipid peroxidation
renal failure in rhabdomyolysis model ([6]; listed as Acetaminophen): prevented the renal failure
lipid peroxidation in rhabdomyolysis model ([6]; listed as acetaminophen): blocks
renal failure in rhabdomyolysis model ([6]; listed as acetaminophen): blocks
EC50 at 24 h [2]: 594 ± 147 µM

Compound: CN(C)c1ncc(O)cn1 [DM-Pym, 2-(dimethylamino)pyrimidin-5-ol]
potency in reducing ferryl myoglobin [7]: remarkably more potent than acetaminophen
cytotoxicity in ethanol-induced HepG2 model [8]: does not cause cytotoxicity

Second part, led by results:

inhibition of COX-1, in words ([4]; at concentrations up to 1 mM): not able to significantly inhibit
Microsomal stability % left [3]: 87 ± 7%
Compound: Cc1nc2c(c(C)c1O)CNC(=O)N2 [Analog 13]
EC50 at 24 h [2]: 2960 ± 284 µM

rank in inhibiting myoglobin-induced arachidonic oxidation [5]: least potent
rank in inhibiting COX-1 activity ([4]; among ApAP and analogs 12-14): most potent
Microsomal stability % left [3]: 97 ± 3%
Compound: Cc1nc2c(c(C)c1O)COC(=O)N2 [Analog 14]
EC50 at 24 h [2]: > 5000 µM

inhibition of PGHS-2 (COX-2), in words [9]: only a weak inhibitor
Compound: CN(C)c1ccc(O)cn1 [DM-Pyr, 6-(dimethylamino) pyridin-3-ol]
